The results in this text go back to EP1754489A1, “A method of treating vitiligo using synergistic formation” (Ramaiah, Abburi, Prof., priority 2005, dated 2007).

One test relates to fast spreading vitiligo. The test can be described thus: Clinical trial: arrest of disease activity with oral minipulse (OMP) of beta methasone with or without local active peptide. It is filed as in vivo, human volunteers. From the text: (§1) That this happens was shown in a clinical trial on human volunteers. The above twin objectives were accomplished. Fig.2a describes two vitiligo patches at the start of treatment of oral steroids, while 2b describes the same patches at the end of 3 months of treatment with oral steroids while at the same time bFGF peptide(s) lotion was applied locally once a day on the lower vitiligo patch for the duration of intake of oral steroids. […] The arrest of the fast spread of the disease was accomplished to the same extent of 84% at the end of 6 months of treatment with oral steroids and the result was not altered by the local application of bFGF peptide(s) lotion (See table 3 for more details).

In test [1] the test system is vitiligo patches of volunteers. The experiment in a line: Clinical trial: repigmentation with oral minipulse of beta methasone with or without local active peptide. The class given is in vivo, human volunteers.
From the text: as §1
At the end of 3 months of combinatorial treatment with steroids and local application of bFGF lotion more than 3 fold more patients got pigmented to a marked extent than with steroid alone (See Table 4 for more details). The percentage of volunteers who had moderate and marked rate of repigmentation with combinatorial therapy at the end of three months of treatment is twice than the steroid therapy alone.

`C[C@H]1C[C@H]2[C@@H]3CCC4=CC(=O)C=C[C@]4(C)[C@@]3(F)[C@@H](O)C[C@]2(C)[C@@]1(O)C(=O)CO` [OMP Alone, beta methasone]: the “No. of patients where the disease was arrested with time” value in the test with fast spreading vitiligo (At 3 months) is given as 12; with fast spreading vitiligo (At 6 months) it was 14. The “Patients where the disease was arrested, percent” value stood at 75% in the test on fast spreading vitiligo (At 3 months); 87.5% in the test with fast spreading vitiligo (At 6 months); 84% in the test with fast spreading vitiligo (At 6 months, listed as oral steroids). In addition, the “Repigmentation Marked, number of volunteers” value was 2 in test [1] (At 3 months) and 4 in test [1] (At 6 months). Besides, the entries for the “Repigmentation Minimal, number of volunteers” value in test [1] (At 3 months) and in test [1] (At 6 months) were 11 and 8, respectively. The “Repigmentation Moderate, number of volunteers” value is reported as 3 in test [1] (At 3 months) and 4 in test [1] (At 6 months).
